Laboratory results as given in patent publication US7932262B2 (Novartis AG, priority 2006, dated 2011).
Where two headings read alike, the source gives them in different places.

What was measured:
PDK1 kinase = biological target: T1, PDK1 kinase (Homo sapiens, UniProt O15530); assay: PDK1 Kinase Alpha Screen Assay; assay type: biochemical; conditions: PDK1 Kinase Alpha Screen Assay; read-out: PDK1 IC50
T1 sequence (O15530 1-556): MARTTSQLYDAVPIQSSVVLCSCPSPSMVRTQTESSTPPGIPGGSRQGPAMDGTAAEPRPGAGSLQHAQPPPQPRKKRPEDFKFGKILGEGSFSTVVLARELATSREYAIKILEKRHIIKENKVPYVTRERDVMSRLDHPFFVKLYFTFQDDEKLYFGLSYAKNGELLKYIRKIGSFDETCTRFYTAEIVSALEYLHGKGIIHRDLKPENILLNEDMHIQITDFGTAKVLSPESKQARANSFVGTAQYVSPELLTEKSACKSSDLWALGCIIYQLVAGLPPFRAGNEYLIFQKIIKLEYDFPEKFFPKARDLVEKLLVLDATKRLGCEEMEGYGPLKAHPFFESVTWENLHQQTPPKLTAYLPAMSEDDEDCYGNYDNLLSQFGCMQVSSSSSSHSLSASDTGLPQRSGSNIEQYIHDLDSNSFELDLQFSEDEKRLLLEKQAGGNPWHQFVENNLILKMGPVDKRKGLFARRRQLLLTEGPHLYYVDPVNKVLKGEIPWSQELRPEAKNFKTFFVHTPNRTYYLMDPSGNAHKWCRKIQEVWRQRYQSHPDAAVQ
Outline: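 Kinase inhibition measured as loss of AlphaScreen signal from antibody recognition of phosphorylated biotin-PDK1-4 peptide. Reactions contain 10 uM ATP and 50 nM peptide, run 3-18 hours before EDTA quench and overnight bead development at room temperature.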

PC-3 cells = assay: Cell Proliferation Assay (Cell Titer Glo), PC-3 cell line; assay type: cell-based; conditions: PC3, read-out: CPEC50 PC3
Outline: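 Cell Titer Glo luminescence, read after fresh medium replaced the dosing medium, gave viability of PC-3 cells plated at 1000 cells/well. Compounds, 1:3 serially diluted in DMSO at 500× and then in medium, were added after 3-5 h adhesion and incubated 3 days at 37° C.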

[1] = Homo sapiens, PC-3, Cell Proliferation Assay

| IC50 (PDK1 kinase) [µM] | EC50 (PC-3 cells; [1]) [µM] | EC50 (PC-3 cells; Cell Proliferation Assay) [µM] | Structure (SMILES) |
| --- | --- | --- | --- |
| < 5 | 5 to 10 | – | O=C1CN(C(=O)c2ccc(Nc3ncc4cccc(OC5CCNCC5)c4n3)cc2F)CCN1 [Compound 494, 4-(2-fluoro-4-(8-(piperidin-4-yloxy)quinazolin-2-ylamino)benzoyl)piperazin-2-one] |
| < 5 | < 5 | – | O=C(NC1CCCC1)c1ccc(Nc2ncc3cccc(OC4CCNCC4)c3n2)cc1F [Compound 495, N-cyclopentyl-2-fluoro-4-(8-(piperidin-4-yloxy)quinazolin-2-ylamino)benzamide] |
| < 5 | 5 to 10 | – | CC(=O)NCCNC(=O)c1ccc(Nc2ncc3cccc(OC4CCNCC4)c3n2)cc1F [Compound 496, N-(2-acetamidoethyl)-2-fluoro-4-(8-(piperidin-4-yloxy)quinazolin-2-ylamino)benzamide] |
| < 5 | < 5 | – | O=C(NCCN1CCCC1)c1ccc(Nc2ncc3cccc(OC4CCNCC4)c3n2)cc1F [Compound 497, 2-fluoro-4-(8-(piperidin-4-yloxy)quinazolin-2-ylamino)-N-(2-(pyrrolidin-1-yl)ethyl)benzamide] |
| < 5 | 5 to 10 | – | O=C(c1ccc(Nc2ncc3c(C(F)(F)F)ccc(OC4CCNCC4)c3n2)cc1)N1CCOCC1 [Compound 501, morpholino(4-(8-(piperidin-4-yloxy)-5-(trifluoromethyl)quinazolin-2-ylamino)phenyl)methanone] |
| < 5 | – | < 5 | FC(F)(F)c1ccc(OC2CCNCC2)c2nc(Nc3ccc(N4CCOCC4)cc3)ncc12 [Compound 502, N-(4-morpholinophenyl)-8-(piperidin-4-yloxy)-5-(trifluoromethyl)quinazolin-2-amine] |
| < 5 | 5 to 10 | – | COc1c(NC2CCN(C)CC2)cc(Cl)c2cnc(Nc3ccc(C(=O)N4CCOCC4)cc3)nc12 [Compound 503, (4-(5-chloro-8-methoxy-7-(1-methylpiperidin-4-ylamino)quinazolin-2-ylamino)phenyl)(morpholino)methanone] |
| 5 to 10 | 5 to 10 | – | CC(C)N1CCC(Oc2cccc3cnc(N)nc23)CC1 [Compound 523, 8-(1-isopropylpiperidin-4-yloxy)quinazolin-2-amine] |
| 10 to 25 | < 5 | – | Nc1ncc2cccc(O)c2n1 [Compound 524, 2-aminoquinazolin-8-ol] |
| < 5 | < 5 | – | CC(C)N1CCC(Oc2cccc3cnc(Nc4cccc(NC(=O)N5CCCC5)c4)nc23)CC1 [Compound 525, N-(3-(8-(1-isopropylpiperidin-4-yloxy)quinazolin-2-ylamino)phenyl)pyrrolidine-1-carboxamide] |
| < 5 | 5 to 10 | – | COc1cc(Nc2ncc3cccc(OC4CCN(C(C)C)CC4)c3n2)cc(OC)c1 [Compound 526, N-(3,5-dimethoxyphenyl)-8-(1-isopropylpiperidin-4-yloxy)quinazolin-2-amine] |
| < 5 | < 5 | – | CC(C)N1CCC(Oc2cccc3cnc(Nc4cccc(F)c4)nc23)CC1 [Compound 527, N-(3-fluorophenyl)-8-(1-isopropylpiperidin-4-yloxy)quinazolin-2-amine] |
| < 5 | < 5 | – | CC(C)N1CCC(Oc2cccc3cnc(Nc4cccc(Cl)c4)nc23)CC1 [Compound 528, N-(3-chlorophenyl)-8-(1-isopropylpiperidin-4-yloxy)quinazolin-2-amine] |
| < 5 | < 5 | – | CC(C)N1CCC(Oc2cccc3cnc(Nc4cccc(C(F)(F)F)c4)nc23)CC1 [Compound 529, 8-(1-isopropylpiperidin-4-yloxy)-N-(3-(trifluoromethyl)phenyl)quinazolin-2-amine] |
| < 5 | < 5 | – | CC(C)N1CCC(Oc2cccc3cnc(Nc4cccc(C#N)c4)nc23)CC1 [Compound 530, 3-(8-(1-isopropylpiperidin-4-yloxy)quinazolin-2-ylamino)benzonitrile] |
| < 5 | 5 to 10 | – | COc1cccc(Nc2ncc3cccc(OC4CCN(C(C)C)CC4)c3n2)c1 [Compound 531, 8-(1-isopropylpiperidin-4-yloxy)-N-(3-methoxyphenyl)quinazolin-2-amine] |
| 5 to 10 | 5 to 10 | – | CC(C)N1CCC(Oc2cccc3cnc(Nc4ccccc4F)nc23)CC1 [Compound 532, N-(2-fluorophenyl)-8-(1-isopropylpiperidin-4-yloxy)quinazolin-2-amine] |

| IC50 (PDK1 kinase) [µM] | EC50 (PC-3 cells; [1]) [µM] | EC50 (PC-3 cells; Cell Proliferation Assay) [µM] | Structure (SMILES) |
| --- | --- | --- | --- |
| < 5 | < 5 | – | CC(C)N1CCC(Oc2cccc3cnc(Nc4cc(F)cc(F)c4)nc23)CC1 [Compound 533, N-(3,5-difluorophenyl)-8-(1-isopropylpiperidin-4-yloxy)quinazolin-2-amine] |
| < 5 | < 5 | – | CC(C)N1CCC(Oc2cccc3cnc(Nc4ccccc4)nc23)CC1 [Compound 534, 8-(1-isopropylpiperidin-4-yloxy)-N-phenylquinazolin-2-amine] |
| < 5 | 5 to 10 | – | COc1ccc(Nc2ncc3cccc(OC4CCN(C(C)C)CC4)c3n2)cc1 [Compound 535, 8-(1-isopropylpiperidin-4-yloxy)-N-(4-methoxyphenyl)quinazolin-2-amine] |
| < 5 | < 5 | – | CC(C)N1CCC(Oc2cccc3cnc(Nc4ccc(C#N)cc4)nc23)CC1 [Compound 536, 4-(8-(1-isopropylpiperidin-4-yloxy)quinazolin-2-ylamino)benzonitrile] |
| < 5 | 5 to 10 | – | CC(C)N1CCC(Oc2cccc3cnc(Nc4ccc(C(=O)N5CCOCC5)cc4)nc23)CC1 [Compound 537, (4-(8-(1-isopropylpiperidin-4-yloxy)quinazolin-2-ylamino)phenyl)(morpholino)methanone] |
| < 5 | < 5 | – | O=C(c1ccc(Nc2ncc3cccc(OC4CCNCC4)c3n2)cc1)N1CCOCC1 [Compound 538, morpholino(4-(8-(piperidin-4-yloxy)quinazolin-2-ylamino)phenyl)methanone] |
| < 5 | < 5 | – | CC(=O)N1CCC(Oc2cccc3cnc(Nc4ccc(S(N)(=O)=O)cc4)nc23)CC1 [Compound 539, 4-(8-(1-acetylpiperidin-4-yloxy)quinazolin-2-ylamino)benzenesulfonamide] |
| < 5 | < 5 | – | CS(=O)(=O)N1CCC(Oc2cccc3cnc(Nc4ccc(S(N)(=O)=O)cc4)nc23)CC1 [Compound 540, 4-(8-(1-(methylsulfonyl)piperidin-4-yloxy)quinazolin-2-ylamino)benzenesulfonamide] |
| < 5 | < 5 | – | c1cc(Nc2ncc3cccc(OC4CCNCC4)c3n2)cc(N2CCOCC2)c1 [Compound 545, N-(3-morpholinophenyl)-8-(piperidin-4-yloxy)quinazolin-2-amine] |
| < 5 | < 5 | – | c1cc(OC2CCNCC2)c2nc(Nc3ccc(N4CCOCC4)cc3)ncc2c1 [Compound 546, N-(4-morpholinophenyl)-8-(piperidin-4-yloxy)quinazolin-2-amine] |
| 5 to 10 | 5 to 10 | – | COc1ccc(NC(C)=O)cc1Nc1ncc2cccc(OC3CCNCC3)c2n1 [Compound 547, N-(4-methoxy-3-(8-(piperidin-4-yloxy)quinazolin-2-ylamino)phenyl)acetamide] |
| < 5 | < 5 | – | CN1CCN(c2ccc(Nc3ncc4cccc(OC5CCNCC5)c4n3)cc2)CC1 [Compound 548, N-(4-(4-methylpiperazin-1-yl)phenyl)-8-(piperidin-4-yloxy)quinazolin-2-amine] |
| < 5 | < 5 | – | CNS(=O)(=O)c1ccc(Nc2ncc3ccc(O)c(C4CCN(C(C)C)CC4)c3n2)cc1 [Compound 549] |
| < 5 | 5 to 10 | – | c1cc(Nc2ncc3cccc(OC4CCNCC4)c3n2)cc(N2CCCC2)c1 [Compound 550, 8-(piperidin-4-yloxy)-N-(3-(pyrrolidin-1-yl)phenyl)quinazolin-2-amine] |
| < 5 | 5 to 10 | – | CC(C)N1CCC(Oc2cccc3cnc(Nc4cccc(N5CCCC5)c4)nc23)CC1 [Compound 551, 8-(1-isopropylpiperidin-4-yloxy)-N-(3-(pyrrolidin-1-yl)phenyl)quinazolin-2-amine] |
| 10 to 25 | 5 to 10 | – | CC(C)N1CCC(Oc2cccc3cnc(N4CCN(c5ccc(N)cc5)CC4)nc23)CC1 [Compound 552, 4-(4-(8-(1-isopropylpiperidin-4-yloxy)quinazolin-2-yl)piperazin-1-yl)aniline] |
| < 5 | < 5 | – | CC(C)N1CCC(Oc2cc(-c3nccs3)cc3cnc(Nc4ccc(N5CCOCC5)cc4)nc23)CC1 [Compound 553, 8-(1-isopropylpiperidin-4-yloxy)-N-(4-morpholinophenyl)-6-(thiazol-2-yl)quinazolin-2-amine] |
